Test results published in patent US5767268A, “Sulfuric acid esters of amino sugars” (Hoffmann-La Roche Inc., priority 1995, dated 1998).
Structures can show the parent of a compound that is named as a salt. Where two headings read alike, the source gives them in different places.

Experiments:
Factor Xa = target: T1, Factor Xa (Bos taurus, UniProt P00743); test: Blood coagulation inhibition: inhibition of Factor Xa in the Chromogen Substrate Test; assay type: biochemical
T1 sequence (P00743 41-180 limits assumed): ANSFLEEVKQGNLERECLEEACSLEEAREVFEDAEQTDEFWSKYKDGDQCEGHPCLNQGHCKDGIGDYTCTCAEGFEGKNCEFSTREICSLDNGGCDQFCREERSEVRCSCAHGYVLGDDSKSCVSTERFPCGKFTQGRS
Protocol: (§1) Inhibition of thrombin or Factor Xa in the Chromogen Substrate Test (Teien et al., Thrombosis Research 10, 399-410 (1977)): The determination was effected in a Cobas-Bio centrifugal automatic spectrophotometer. The buffer solution used consisted of 50 mM Tris buffer, 180 mM NaCl, 7.5 mM EDTA Na2, 1% PEG 6000 and 0.02% Tween 80, pH 8.4. The test solution consisted of 50 μl of buffer, 30 μl of antithombin III (1U/ml, Kabi Diagnostica) and 20 μl of plasma which contained various concentrations of test compounds. 30 μl of sample solution and 20 μl of water with 180 μl of thrombin (1U/ml, Thrombin Reagent Roche Basle) were added to the test cuvette in the automatic analyzer. After incubation at 37° C. for 240 seconds, 60 μl of S-2238 (H-D-Phe-Pip-Arg-NH.pNA, Kabi Diagnostica, Mondal, Sweden, 0.75 mM in water) and 20 μl of water were added. The liberation of pNA (p-nitro-aniline) was followed during 60 seconds at 405 nm in 10 second intervals in comparison to water as the blank.
The inhibition of Factor Xa was measured in the same manner using a solution of Factor Xa (2.8 nkat/ml and 2 mM S-2222 (Bz-CO-Ile-Glu-Arg-NH.pNA, Kabi Diagnostica) in water in place of thrombin and, respectively, S-2238.

rat smooth muscle cells = test: Antiproliferative activity (ri, relative to heparin) in rat smooth muscle cells; assay type: cell-based; set-up: key: growth inhibition relative to heparin at 100 μg/ml, same experiment; conditions: 100 μg/ml, 48 h, relative to heparin at 100 μg/ml in the same experiment
Protocol: Antiproliferative Activity
The antiproliferative activity of a substance is expressed as the ri value which is a comparative value to the corresponding activity of heparin and which was determined in cell cultures as follows: rat smooth muscle cells were applied to cell culture plates in a density of 8×10^3 cells/well (medium: DMEM with 10% FCS. Cultivation at 37° C. and 5% CO2). After 4 hours, the number of adhered cells was determined and the substances to be tested (100 μg/ml, dissolved in H2 O) were added. […] Subsequently, the cells were incubated for 48 h. and thereafter the cell count was determined once more.
The inhibition i of the cell growth, that is, the reduction in the growth rate of the cells in percent compared to the control, was calculated from these values. [formula] the growth rate μbeing calculated as [formula] in which Z is the number of cells and d is the time in days.
Finally, ri --the relative inhibitory activity--which expresses the activity of a substance (at 100 μg/ml) in comparison to the activity of heparin in the same concentration in the same experiment, was calculated: [formula] Blood Coagulation Inhibition

[1] = tested on: neointima in rat carotids; test: In vivo assay of the antiproliferative activity in damaged rat carotids (neointima); set-up: species or system rat (male Wistar Kyoto); conditions: 1 mg/kg/h i.v., p<0.001 t-test
Protocol: In vivo assay for the determination of the antiproliferative activity of the compounds in accordance with the invention in damaged rat carotids
After narcosis, the left carotids of male Wistar Kyoto rats (300-400 g) were damaged with a 2 F embolectomy catheter by drawing the catheter in the pumped-up state three times through the vessel. After wound healing, the animals were kept in pairs with standard feed and water ad libidum.
The compounds were administered in concentrations of 0.3-1 mg/kg/h i.v. For this purpose, during the narcosis an osmotic minipump was implanted into the animals under the dorsal skin and was attached to the jugular vein. Thus, the compounds could be administered constantly during the entire test period of 14 days.
After 14 days proliferative tissue (neointima) had formed, the size of which could be determined morphometrically on histological cross-sections.For this purpose, the rats were sacrificed and perfusion-fixed with glutaraldehyde.

thrombin = target: T2, thrombin (Homo sapiens, UniProt P00734); assay type: biochemical
T2 construct: purchased Roche Basle (Thrombin Reagent)
Protocol: as §1

[2] = with antithrombin III and plasma, S-2222 substrate; read-out: Anticoagulative Activity IC50 Factor Xa
[3] = with antithrombin III and plasma, S-2238 substrate, 37° C., pH 8.4; read-out: Anticoagulative Activity IC50 Thrombin
[4] = read-out: Anticoagulative Activity IC50 Factor Xa; with antithrombin III and plasma, S-2222 substrate
[5] = read-out: Anticoagulative Activity IC50 Thrombin; with antithrombin III and plasma, S-2238 substrate, 37° C., pH 8.4

SMILES | IC50 (Factor Xa; [2]) [µM] | Antiproliferative Activity ri (relative inhibitory activity versus heparin) (rat smooth muscle cells) | cross-sectional area of the neointima in rat carotids 14 days after balloonisation [1] | IC50 (thrombin; [3]) [µM] | IC50 (Factor Xa; [4]) [µM] | IC50 (thrombin; [5]) [µM]
O=C(N[C@H]1[C@@H](OCc2ccccc2)O[C@H](CNC(=O)[C@H](OS(=O)(=O)O)[C@@H](OS(=O)(=O)O)[C@H](OS(=O)(=O)O)[C@@H](COS(=O)(=O)O)OS(=O)(=O)O)[C@@H](OS(=O)(=O)O)[C@@H]1OS(=O)(=O)O)c1ccc(-c2ccc(C(=O)N[C@H]3[C@@H](OCc4ccccc4)O[C@H](CNC(=O)[C@H](OS(=O)(=O)O)[C@@H](OS(=O)(=O)O)[C@H](OS(=O)(=O)O)[C@@H](COS(=O)(=O)O)OS(=O)(=O)O)[C@@H](OS(=O)(=O)O)[C@@H]3OS(=O)(=O)O)cc2)cc1 [Example 14, Biphenyl-4,4'-dicarboxylic acid bis-[[benzyl 2,6-didesoxy-3,4-di-O-sulfo-6-(2,3,4,5,6-penta-O-sulfo-D-gluconoylamino)-a-D-glucopyranosid-2-yl]-amide] tetradecasodium salt] | > 450 | 1.2 | significantly reduced | > 450 | – | –
O=C(N[C@H]1[C@@H](OCc2ccccc2)O[C@H](CNC(=O)[C@H](OS(=O)(=O)O)[C@@H](OS(=O)(=O)O)[C@H](OS(=O)(=O)O)[C@@H](COS(=O)(=O)O)OS(=O)(=O)O)[C@@H](OS(=O)(=O)O)[C@@H]1OS(=O)(=O)O)c1cccc(C(=O)N[C@H]2[C@@H](OCc3ccccc3)O[C@H](CNC(=O)[C@H](OS(=O)(=O)O)[C@@H](OS(=O)(=O)O)[C@H](OS(=O)(=O)O)[C@@H](COS(=O)(=O)O)OS(=O)(=O)O)[C@@H](OS(=O)(=O)O)[C@@H]2OS(=O)(=O)O)c1 [Example 24, Isophthalic acid bis-[[benzyl 2,6-didesoxy-6-(2,3,4,5,6-penta-O-sulfo-D-gluconoylamino)-3,4-di-O-sulfo-a-D-gluco-pyranosid-2-yl]-amide] tetradecasodium salt] | – | – | significantly reduced | – | – | –
O=C(N[C@H]1[C@@H](OCc2ccccc2)O[C@H](CN2C(=O)c3ccc4c5c(ccc(c35)C2=O)C(=O)N(C[C@H]2O[C@H](OCc3ccccc3)[C@H](NC(=O)c3ccc(NC[C@H](OS(=O)(=O)O)[C@@H](OS(=O)(=O)O)[C@H](OS(=O)(=O)O)[C@@H](COS(=O)(=O)O)OS(=O)(=O)O)c([N+](=O)[O-])c3)[C@@H](OS(=O)(=O)O)[C@@H]2OS(=O)(=O)O)C4=O)[C@@H](OS(=O)(=O)O)[C@@H]1OS(=O)(=O)O)c1ccc(NC[C@H](OS(=O)(=O)O)[C@@H](OS(=O)(=O)O)[C@H](OS(=O)(=O)O)[C@@H](COS(=O)(=O)O)OS(=O)(=O)O)c([N+](=O)[O-])c1 [Example 34, 2,7-Bis-[benzyl 2,6-didesoxy-2-[3-nitro-4-(2,3,4,5,6-penta-O-sulfo-D-glucit-1-ylamino)-benzoylamino]-3,4-di-O-sulfo-a-D-1 5 glucopyranosid-6-yl]-1,2,3,6,7,8-hexahydro-benzo[lmn][3,8] phenanthroline-1,3,6,8-tetraone tetradecasodium salt] | – | 3.9 | – | – | > 393 | > 393
CN(C[C@H](OS(=O)(=O)O)[C@@H](OS(=O)(=O)O)[C@H](OS(=O)(=O)O)[C@@H](COS(=O)(=O)O)OS(=O)(=O)O)c1ccc(C(=O)N[C@H]2[C@@H](OCc3ccccc3)O[C@H](CNC(=O)c3cccc(C(=O)NC[C@H]4O[C@H](OCc5ccccc5)[C@H](NC(=O)c5ccc(N(C)C[C@H](OS(=O)(=O)O)[C@@H](OS(=O)(=O)O)[C@H](OS(=O)(=O)O)[C@@H](COS(=O)(=O)O)OS(=O)(=O)O)c([N+](=O)[O-])c5)[C@@H](OS(=O)(=O)O)[C@@H]4OS(=O)(=O)O)c3)[C@@H](OS(=O)(=O)O)[C@@H]2OS(=O)(=O)O)cc1[N+](=O)[O-] [Example 35, Isophthalic acid bis-[[benzyl 2,6-didesoxy-2-[4-[methyl (2,3,4,5,6-penta-O-sulfo-D-glucit-1-yl)-amino]-3-nitro-benzoylamino]-3,4-di-O-sulfo-a-D-glucopyranosid-6-yl]-amide] tetradecasodium salt] | – | 2.5 | – | – | > 404 | > 404
O=C(CO[C@@H]1[C@@H](NC(=O)c2ccc(-c3ccc(C(=O)N[C@H]4[C@@H](OCc5ccccc5)O[C@@H]5CO[C@@H](c6ccccc6)O[C@H]5[C@@H]4OCC(=O)N[C@H]4[C@@H](OCc5ccccc5)O[C@H](COS(=O)(=O)O)[C@@H](OS(=O)(=O)O)[C@@H]4OS(=O)(=O)O)cc3)cc2)[C@@H](OCc2ccccc2)O[C@@H]2CO[C@@H](c3ccccc3)O[C@@H]12)N[C@H]1[C@@H](OCc2ccccc2)O[C@H](COS(=O)(=O)O)[C@@H](OS(=O)(=O)O)[C@@H]1OS(=O)(=O)O [Example 11, (Biphenyl-4,4'-dicarboxylic acid) bis-[[benzyl 3-O-[(benzyl 2-desoxy-2,3,4-tri-O-sulfo-a-D-glucopyranoside)-2-yl-carbamoylmethyl]-4,6-(R)-O-benzylidene-2-desoxy-a-D-glucopyranosid-2-yl]-amide] hexasodium salt] | > 495 | 1.7 | – | > 495 | – | –
O=C(N[C@H]1[C@@H](OCc2ccccc2)O[C@H](CNC(=O)[C@H](OS(=O)(=O)O)[C@@H](OS(=O)(=O)O)[C@H](OS(=O)(=O)O)[C@@H](COS(=O)(=O)O)OS(=O)(=O)O)[C@@H](OS(=O)(=O)O)[C@@H]1OS(=O)(=O)O)c1ccc(/C=C\c2ccc(C(=O)N[C@H]3[C@@H](OCc4ccccc4)O[C@H](CNC(=O)[C@H](OS(=O)(=O)O)[C@@H](OS(=O)(=O)O)[C@H](OS(=O)(=O)O)[C@@H](COS(=O)(=O)O)OS(=O)(=O)O)[C@@H](OS(=O)(=O)O)[C@@H]3OS(=O)(=O)O)cc2)cc1 [Example 23, (Z)-stilbene-4,4'-dicarboxylic acid bis-[[benzyl 2,6-didesoxy-6-(2,3,4,5,6-penta-O-sulfo-D-gluconoylamino)-3,4-di-O-sulfo-α-D-glucopyranosid-2-yl]-amide] tetradecasodium salt] | > 445 | 1.8 | – | > 445 | – | –
